Molecular target: T1, porcine pancreatic lipase (Sus scrofa, UniProt P00591)
T1 sequence (P00591 1-450): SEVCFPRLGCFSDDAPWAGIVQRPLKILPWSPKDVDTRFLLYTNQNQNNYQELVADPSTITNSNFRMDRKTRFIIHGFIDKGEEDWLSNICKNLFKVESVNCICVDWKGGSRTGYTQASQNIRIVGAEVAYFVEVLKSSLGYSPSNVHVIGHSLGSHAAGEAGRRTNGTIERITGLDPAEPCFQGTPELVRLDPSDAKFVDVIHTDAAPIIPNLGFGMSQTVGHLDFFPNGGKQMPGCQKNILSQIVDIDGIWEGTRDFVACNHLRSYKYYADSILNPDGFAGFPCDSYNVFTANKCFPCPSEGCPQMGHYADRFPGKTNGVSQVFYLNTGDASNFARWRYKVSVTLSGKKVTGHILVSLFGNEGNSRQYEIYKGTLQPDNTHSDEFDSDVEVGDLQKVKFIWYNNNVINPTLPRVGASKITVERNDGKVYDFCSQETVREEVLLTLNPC
Test: Pancreatic lipase assay
Type: biochemical

IC50: 11.2 µM
Structure (SMILES): O=C(O[C@@H]1C=C[C@@H](OC(=O)c2ccccc2)[C@](O)(CO)[C@H]1O)c1ccccc1 (relative stereo) [Compound 1, (1R*,4R*,5S*,6S*)-5,6-dihydroxy-5-(hydroxymethyl)cyclohex-2-ene-1,4-diyl dibenzoate]

Reference: article PMC9583304 (ACS Omega, 2022)
